Assays:
JAK2 (a.a. 828-1132) = JAK2 (a.a. 828-1132) (Homo sapiens (Human), UniProt O60674); assay: In vitro JAK kinase assay (HTRF), JAK2, for JAK2/JAK1 ratio; assay type: biochemical; settings: IC50 ratio at 1 mM ATP
Experimental: (§1) The catalytic activity of JAK1, JAK2 or JAK3 was assayed by measuring the phosphorylation of a biotinylated peptide. The phosphorylated peptide was detected by homogenous time resolved fluorescence (HTRF). IC5os of compounds are measured for each kinase in the 40 microL reactions that contain the enzyme, ATP and 500 nM peptide in 50 mM Tris (pH 7.8) buffer with 100 mM NaCl, 5 mM DTT, and 0.1 mg/mL (0.01%) BSA. […] Reactions are carried out at room temperature for 1 hour and then stopped with 20 μL 45 mM EDTA, 300 nM SA-APC, 6 nM Eu-Py20 in assay buffer (Perkin Elmer, Boston, MA). Binding to the Europium labeled antibody takes place for 40 minutes and HTRF signal was measured on a Fusion plate reader (Perkin Elmer, Boston, MA).

[1] = biological target: human JAK1 (a.a. 837-1142) (Homo sapiens, UniProt P23458); assay: In vitro JAK kinase assay (HTRF), JAK1; assay type: biochemical; settings: 1 mM ATP
Experimental: as §1

Chain of JAK2 (a.a. 828-1132) (O60674 828-1132): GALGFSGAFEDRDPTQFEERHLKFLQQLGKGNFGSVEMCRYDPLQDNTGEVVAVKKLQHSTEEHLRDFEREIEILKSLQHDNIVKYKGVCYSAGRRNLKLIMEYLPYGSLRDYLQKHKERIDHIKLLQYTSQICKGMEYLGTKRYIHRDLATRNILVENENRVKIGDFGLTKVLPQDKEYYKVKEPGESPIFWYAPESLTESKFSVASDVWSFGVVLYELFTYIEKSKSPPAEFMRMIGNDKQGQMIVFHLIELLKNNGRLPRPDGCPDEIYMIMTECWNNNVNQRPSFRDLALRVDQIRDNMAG

Structure (SMILES)	JAK2/JAK1 (JAK2 (a.a. 828-1132))	IC50 [1] [nM]
N#CCC(C1CCN(c2nc3cccnc3o2)C1)n1cc(-c2ncnc3[nH]ccc23)cn1 (centres unmarked) [compound 7, 3-(1-[1,3]oxazolo[5,4-b]pyridin-2-ylpyrrolidin-3-yl)-3-[4-(7H-pyrrolo[2,3-d]pyrimidin-4-yl)-1H-pyrazol-1-yl]propanenitrile]	>10	< 10
N#CCC(CN1CCN(C(=O)c2ccc(C#N)cc2F)CC1)n1cc(-c2ncnc3[nH]ccc23)cn1 (centres unmarked) [compound 8, 4-[(4-{3-cyano-2-[4-(7H-pyrrolo[2,3-d]pyrimidin-4-yl)-1H-pyrazol-1-yl]propyl}piperazin-1-yl)carbanoyl]-3-fluorobenzonitrile]	>10	< 10
N#CCC1(n2cc(-c3ncnc4[nH]ccc34)cn2)CN([C@H]2CC[C@@H](Oc3cc(CN4CC[C@@H](O)C4)cc(C(F)(F)F)n3)CC2)C1 [compound 21, {1-(cis-4-{[4-{[(3R)-3-hydroxypyrrolidin-1-yl]methyl}-6-(trifluoromethyl)pyridin-2-yl]oxy}cyclohexyl)-3-[4-(7H-pyrrolo[2,3-d]pyrimidin-4-yl)-1H-pyrazol-1-yl]azetidin-3-yl}acetonitrile]	>10	< 10
C[C@@H](O)c1nc2cnc3ccsc3c2n1[C@H]1CC[C@H](CC#N)OC1 [compound 5, ((2R,5S)-5-{2-[(1R)-1-hydroxyethyl]-1H-imidazo[4,5-d]thieno[3,2-b]pyridin-1-yl}tetrahydro-2H-pyran-2-yl)acetonitrile]	>10	< 100
C[C@H](NC(=O)c1cc(F)c(N2CC(CC#N)(n3cc(-c4ncnc5[nH]ccc45)cn3)C2)cc1F)C(F)(F)F [compound 16, 4-{3-(cyanomethyl)-3-[4-(7H-pyrrolo[2,3-d]pyrimidin-4-yl)-1H-pyrazol-1-yl]azetidin-1-yl}-2,5-difluoro-N-[(1S)-2,2,2-trifluoro-1-methylethyl)benzamide]	>10	< 10
CCNCc1cc(O[C@H]2CC[C@@H](N3CC(CC#N)(n4cc(-c5ncnc6[nH]ccc56)cn4)C3)CC2)nc(C(F)(F)F)c1 [compound 19, {1-(cis-4-{[4-[(ethylamino)methyl]-6-(trifluoromethyl)pyridin-2-yl]oxy}cyclohexyl)-3-[4-(7H-pyrrolo[2,3-d]pyrimidin-4-yl)-1H-pyrazol-1-yl]azetidin-3-yl}acetonitrile]	>10	< 10
N#CC[C@]1(n2cc(-c3ncnc4[nH]ccc34)cn2)C[C@H](N2CCC(Oc3cc(CN4CCC[C@H]4CO)cc(C(F)(F)F)n3)CC2)C1 [compound 12, {trans-3-(4-{[4-{[(2S)-2-(hydroxymethyl)pyrroli-din-1-yl]methyl}-6-(trifluoromethyl)pyridin-2-yl]oxy}piperidin-1-yl)-1-[4-(7H-pyrrolo[2,3-d]pyrimidin-4-yl)-1H-pyrazol-1-yl]cyclobutyl}acetonitrile]	>10	< 10
N#CCC1(n2cc(-c3ncnc4[nH]ccc34)cn2)CN(C2CCN(C(=O)Nc3ccc(F)cc3C(F)(F)F)CC2)C1 [compound 2, 4-{3-(Cyanomethyl)-3-[4-(7H-pyrrolo[2,3-d]pyrimidin-4-yl)-1H-pyrazol-1-yl]azetidin-1-yl}-N-[4-fluoro-2-(trifluoromethyl)phenyl] piperidine-1-carboxamide]	>10	< 10
C[C@H](O)CNCc1cc(OC2CCN([C@H]3C[C@](CC#N)(n4cc(-c5ncnc6[nH]ccc56)cn4)C3)CC2)nc(C(F)(F)F)c1 [compound 25, {trans-3-(4-{[4-({[(2S)-2-hydroxypropyl]amino}methyl)-6-(trifluoromethyl)pyridin-2-yl]oxy}piperidin-1-yl)-1-[4-(7H-pyrrolo[2,3-d]pyrimidin-4-yl)-1H-pyrazol-1-yl]cyclobutyl}acetonitrile]	>10	< 10
N#CC[C@]1(n2cc(-c3ncnc4[nH]ccc34)cn2)C[C@H](N2CCC(Oc3cc(CN4CC(O)C4)cc(C(F)(F)F)n3)CC2)C1 [compound 11, {trans-3-(4-{[4-[(3-hydroxyazetidin-1-yl)methyl]-6-(trifluoromethyl)pyridin-2-yl]oxy}piperidin-1-yl)-1-[4-(7H-pyrrolo[2,3-d]pyrimidin-4-yl)-1H-pyrazol-1-yl]cyclobutyl}acetonitrile]	>10	< 10
N#CCC1(n2cc(-c3ncnc4[nH]ccc34)cn2)CN([C@H]2CC[C@@H](Oc3cc(CN4CC[C@H](O)C4)cc(C(F)(F)F)n3)CC2)C1 [compound 22, {1-(cis-4-{[4-{[(3S)-3-hydroxypyrrolidin-1-yl]methyl}-6-(trifluoromethyl)pyridin-2-yl]oxy}cyclohexyl)-3-[4-(7H-pyrrolo[2,3-d]pyrimidin-4-yl)-1H-pyrazol-1-yl]azetidin-3-yl}acetonitrile]	>10	< 10
N#CCC(CN1CCN(C(=O)c2ccc(C#N)cc2F)CC1)n1ccc(-c2ncnc3[nH]ccc23)c1 (centres unmarked) [compound 9, 4-[(4-{3-cyano-2-[3-(7H-pyrrolo[2,3-d]pyrimidin-4-yl)-1H-pyrrol-1-yl]propyl}piperazin-1-yl)carbonyl]-3-fluorobenzonitrile]	>10	< 10
C[C@@H](CO)NCc1cc(OC2CCN([C@H]3C[C@](CC#N)(n4cc(-c5ncnc6[nH]ccc56)cn4)C3)CC2)nc(C(F)(F)F)c1 [compound 23, {trans-3-(4-{[4-({[(1S)-2-hydroxy-1-methylethyl]amino}meth-yl)-6-(trifluoromethyl)pyridin-2-yl]oxy}piperidin-1-yl)-1-[4-(7H-pyrrolo[2,3-d]pyrimidin-4-yl)-1H-pyrazol-1-yl]cyclobutyl}acetonitrile]	>10	< 10
N#CC[C@]1(n2cc(-c3ncnc4[nH]ccc34)cn2)C[C@H](N2CCC(Oc3cc(CN4CCC[C@@H]4CO)cc(C(F)(F)F)n3)CC2)C1 [compound 13, {trans-3-(4-{[4-{[(2R)-2-(hydroxymethyl)pyrroli-din-1-yl]methyl}-6-(trifluoromethyl)pyridin-2-yl]oxy}piperidin-1-yl)-1-[4-(7H-pyrrolo[2,3-d]pyrimidin-4-yl)-1H-pyrazol-1-yl]cyclobutyl}acetonitrile]	>10	< 10
N#CCC1(n2cc(-c3ncnc4[nH]ccc34)cn2)CN([C@H]2CC[C@@H](Oc3cc(CCO)nc(C(F)(F)F)n3)CC2)C1 [compound 18, {1-(cis-4-{[6-(2-hydroxyethyl)-2-(trifluoromethyl)pyrimi-din-4-yl]oxy}cyclohexyl)-3-[4-(7H-pyrrolo[2,3-d]pyrimidin-4-yl)-1H-pyrazol-1-yl]azetidin-3-yl}acetonitrile]	>10	< 10
N#CCC1(n2cc(-c3ncnc4[nH]ccc34)cn2)CN(C2CCN(C(=O)c3ccnc(C(F)(F)F)n3)CC2)C1 [compound 3, [3-[4-(7H-pyrrolo[2,3-d]pyrimidin-4-yl)-1H-pyrazol-1-yl]-1-(1-{[2-(trifluoromethyl)pyrimi-din-4-yl]carbonyl}piperidin-4-yl)azetidin-3-yl]acetonitrile]	>10	< 10

Reference: US20240058343A1, “TREATMENT OF URTICARIA USING JAK INHIBITORS” (Incyte Corporation, priority 2022, published 2024)
